Molecules are shown by their SMILES.

Experimental findings from patent US20090221576A1, “Pharmaceutical Use of 2-Hydroxy-3-[5-(Morpholin-4-Ylmethyl) Pyridin-2-YL]-1H-IN-Dole-5-Carbonitrile as a Free Base or Salts” (ASTRAZENECA AB GLOBAL INTELLECTUAL PROPERTY, priority 2006, published 2009) are described below.

For the assay, the system named is Han Wistar rats. Kind of assay: Increased bone formation in rats, four-week oral gavage study, light microscopy of femur, femorotibial joint and sternum. It is filed as in vivo, rat. On the procedure: Male and female Han Wistar rats were dosed by oral gavage, at dosages of 15, 55 or 100 μmol/kg/day for four weeks and compared to vehicle controls. Complete necropsies were performed and the tissues preserved in 10% formalin. The femur, femorotibial joint and sternum were decalcified, embedded in paraffin, sectioned at 5 μm thickness and stained with hematoxylin and eosin.

Where [1] appears, read: rat, 100 μmol/kg for 4 weeks, vs vehicle-treated control rat (FIG. 1a).

For `N#Cc1ccc2[nH]c(O)c(-c3ccc(CN4CCOCC4)cn3)c2c1` [compound (I), 2-hydroxy-3-[5-(morpholin-4-ylmethyl)pyridin-2-yl]1H-indole-5-carbonitrile], under setting [1], the “formation of osteoid in the femur (epiphysis), FIG. 1b” value was “marked increase in formation of osteoid” and the “number of osteoblasts in the femur (epiphysis), FIG. 1b” value is “increased number of osteoblasts”.
On to `N#Cc1ccc2[nH]c(O)c(-c3ccc(CN4CCOCC4)cn3)c2c1.O=C(O)CC(O)(CC(=O)O)C(=O)O` [Example 1, 2-Hydroxy-3-[5-(morpholin-4-ylmethyl)pyridin-2-yl]1H-indole-5-carbonitrile citrate salt], for which the “bone formation as evaluated by light microscopy” value (male and female Han Wistar rats, oral gavage, 100 μmol/kg dose level, four weeks, vs vehicle controls, femur, femorotibial joint, sternum, H&E) is “increased bone formation in the form of thickened trabeculae, thickened cortical bone, periosteal hyperostosis and increased number of osteoblasts”.
